In the supplement of paper PMC10307832:

Columns and labels:
Assay in all cases: relative viability (nuclei count vs DMSO), 5 days (fraction); higher = more cells survive
ABC-1 = tested on: ABC-1
Summary of the method: (§1)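 Relative viability divides the nuclei count in treated wells by that in vehicle wells. Lung cancer cell lines were seeded in 1536-well plates, dosed by pin tool the next day, and fixed and stained after 5 days in one step with final 0.05% Triton X-100, 1% formaldehyde and 1 ug/ml Hoechst. Dosing was a single drug or a fixed anchor-drug dose plus five library-drug doses (not always all listed) in √10 steps, and values are medians of duplicate plates imaged at 4×.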

NCI-H520 = tested on: NCI-H520
Summary of the method: as §1

RERF-LC-KJ = tested on: RERF-LC-KJ
Summary of the method: as §1

NCI-H647 = tested on: NCI-H647
Summary of the method: as §1

NCI-H2085 = tested on: NCI-H2085
Summary of the method: as §1

HARA = tested on: HARA
Summary of the method: as §1

NCI-H2126 = tested on: NCI-H2126
Summary of the method: as §1

SW 900 = tested on: SW 900
Summary of the method: as §1

LOU-NH91 = tested on: LOU-NH91
Summary of the method: as §1

BEN = tested on: BEN
Summary of the method: as §1

LCLC-103H = tested on: LCLC-103H
Summary of the method: as §1

NCI-H661 = tested on: NCI-H661
Summary of the method: as §1

NCI-H1651 = tested on: NCI-H1651
Summary of the method: as §1

NCI-H596 = tested on: NCI-H596
Summary of the method: as §1

NCI-H1944 = tested on: NCI-H1944
Summary of the method: as §1

NCI-H1666 = tested on: NCI-H1666
Summary of the method: as §1

NCI-H727 = tested on: NCI-H727
Summary of the method: as §1

NCI-H460 = tested on: NCI-H460
Summary of the method: as §1

NCI-H1734 = tested on: NCI-H1734
Summary of the method: as §1

CAL-12T = tested on: CAL-12T
Summary of the method: as §1

NCI-H1975 = tested on: NCI-H1975
Summary of the method: as §1

NCI-H838 = tested on: NCI-H838
Summary of the method: as §1

## Cc1cn(-c2cc(NC(=O)c3ccc(C)c(Nc4nccc(-c5cccnc5)n4)c3)cc(C(F)(F)F)c2)cn1 [Nilotinib] + N=C(N)NC(=N)NCCc1ccccc1 [Phenformin] (partner 250 µM)
ABC-1; first compound 0.001 µM
  relative viability: 0.219
ABC-1; first compound 0.003162 µM
  relative viability: 0.243
ABC-1; first compound 0.01 µM
  relative viability: 0.259
ABC-1; first compound 0.03162 µM
  relative viability: 0.249
ABC-1; first compound 0.1 µM
  relative viability: 0.264
NCI-H520; first compound 0.001 µM
  relative viability: 0.707
NCI-H520; first compound 0.01 µM
  relative viability: 0.655
NCI-H520; first compound 0.03162 µM
  relative viability: 0.447
NCI-H520; first compound 0.1 µM
  relative viability: 0.428
RERF-LC-KJ; first compound 0.001 µM
  relative viability: 0.406
RERF-LC-KJ; first compound 0.003162 µM
  relative viability: 0.449
RERF-LC-KJ; first compound 0.01 µM
  relative viability: 0.43
RERF-LC-KJ; first compound 0.03162 µM
  relative viability: 0.344
RERF-LC-KJ; first compound 0.1 µM
  relative viability: 0.453
NCI-H647; first compound 0.001 µM
  relative viability: 0.627
NCI-H647; first compound 0.003162 µM
  relative viability: 0.628
NCI-H647; first compound 0.01 µM
  relative viability: 0.594
NCI-H647; first compound 0.03162 µM
  relative viability: 0.449
NCI-H647; first compound 0.1 µM
  relative viability: 0.336
NCI-H2085; first compound 0.001 µM
  relative viability: 0.76
NCI-H2085; first compound 0.003162 µM
  relative viability: 0.749
NCI-H2085; first compound 0.01 µM
  relative viability: 0.769
NCI-H2085; first compound 0.03162 µM
  relative viability: 0.493
NCI-H2085; first compound 0.1 µM
  relative viability: 0.581
HARA; first compound 0.001 µM
  relative viability: 0.402
HARA; first compound 0.003162 µM
  relative viability: 0.555
HARA; first compound 0.01 µM
  relative viability: 0.613
HARA; first compound 0.03162 µM
  relative viability: 0.29
HARA; first compound 0.1 µM
  relative viability: 0.322
NCI-H2126; first compound 0.001 µM
  relative viability: 0.546
NCI-H2126; first compound 0.003162 µM
  relative viability: 0.535
NCI-H2126; first compound 0.01 µM
  relative viability: 0.538
NCI-H2126; first compound 0.03162 µM
  relative viability: 0.534
NCI-H2126; first compound 0.1 µM
  relative viability: 0.562
SW 900; first compound 0.001 µM
  relative viability: 0.605
SW 900; first compound 0.003162 µM
  relative viability: 0.634
SW 900; first compound 0.01 µM
  relative viability: 0.612
SW 900; first compound 0.03162 µM
  relative viability: 0.44
SW 900; first compound 0.1 µM
  relative viability: 0.408
LOU-NH91; first compound 0.001 µM
  relative viability: 0.752
LOU-NH91; first compound 0.003162 µM
  relative viability: 0.736
LOU-NH91; first compound 0.01 µM
  relative viability: 0.861
LOU-NH91; first compound 0.03162 µM
  relative viability: 0.663
LOU-NH91; first compound 0.1 µM
  relative viability: 0.75
BEN; first compound 0.001 µM
  relative viability: 0.264
BEN; first compound 0.003162 µM
  relative viability: 0.292
BEN; first compound 0.01 µM
  relative viability: 0.237
BEN; first compound 0.03162 µM
  relative viability: 0.259
BEN; first compound 0.1 µM
  relative viability: 0.289
LCLC-103H; first compound 0.001 µM
  relative viability: 0.326
LCLC-103H; first compound 0.003162 µM
  relative viability: 0.307
LCLC-103H; first compound 0.01 µM
  relative viability: 0.338
LCLC-103H; first compound 0.03162 µM
  relative viability: 0.333
LCLC-103H; first compound 0.1 µM
  relative viability: 0.288
NCI-H661; first compound 0.001 µM
  relative viability: 0.307
NCI-H661; first compound 0.003162 µM
  relative viability: 0.268
NCI-H661; first compound 0.03162 µM
  relative viability: 0.279
NCI-H661; first compound 0.1 µM
  relative viability: 0.288
NCI-H1651; first compound 0.001 µM
  relative viability: 0.346
NCI-H1651; first compound 0.003162 µM
  relative viability: 0.392
NCI-H1651; first compound 0.01 µM
  relative viability: 0.437
NCI-H1651; first compound 0.03162 µM
  relative viability: 0.308
NCI-H1651; first compound 0.1 µM
  relative viability: 0.356
NCI-H596; first compound 0.001 µM
  relative viability: 0.588
NCI-H596; first compound 0.003162 µM
  relative viability: 0.697
NCI-H596; first compound 0.01 µM
  relative viability: 0.909
NCI-H596; first compound 0.03162 µM
  relative viability: 0.475
NCI-H596; first compound 0.1 µM
  relative viability: 0.432
NCI-H1944; first compound 0.001 µM
  relative viability: 0.193
NCI-H1944; first compound 0.003162 µM
  relative viability: 0.216
NCI-H1944; first compound 0.01 µM
  relative viability: 0.222
NCI-H1944; first compound 0.03162 µM
  relative viability: 0.181
NCI-H1666; first compound 0.001 µM
  relative viability: 0.605
NCI-H1666; first compound 0.003162 µM
  relative viability: 0.615
NCI-H1666; first compound 0.01 µM
  relative viability: 0.578
NCI-H1666; first compound 0.03162 µM
  relative viability: 0.545
NCI-H1666; first compound 0.1 µM
  relative viability: 0.652
NCI-H727; first compound 0.001 µM
  relative viability: 0.579
NCI-H727; first compound 0.003162 µM
  relative viability: 0.577
NCI-H727; first compound 0.01 µM
  relative viability: 0.419
NCI-H727; first compound 0.03162 µM
  relative viability: 0.379
NCI-H727; first compound 0.1 µM
  relative viability: 0.346
NCI-H460; first compound 0.001 µM
  relative viability: 0.298
NCI-H460; first compound 0.003162 µM
  relative viability: 0.805
NCI-H460; first compound 0.01 µM
  relative viability: 1.18
NCI-H460; first compound 0.03162 µM
  relative viability: 0.338
NCI-H460; first compound 0.1 µM
  relative viability: 0.106
NCI-H1734; first compound 0.001 µM
  relative viability: 0.359
NCI-H1734; first compound 0.003162 µM
  relative viability: 0.396
NCI-H1734; first compound 0.01 µM
  relative viability: 0.368
NCI-H1734; first compound 0.03162 µM
  relative viability: 0.27
NCI-H1734; first compound 0.1 µM
  relative viability: 0.3
CAL-12T; first compound 0.001 µM
  relative viability: 0.554
CAL-12T; first compound 0.003162 µM
  relative viability: 0.563
CAL-12T; first compound 0.01 µM
  relative viability: 0.701
CAL-12T; first compound 0.03162 µM
  relative viability: 0.436
CAL-12T; first compound 0.1 µM
  relative viability: 0.47
NCI-H1975; first compound 0.001 µM
  relative viability: 0.406
NCI-H1975; first compound 0.003162 µM
  relative viability: 0.438
NCI-H1975; first compound 0.01 µM
  relative viability: 0.413
NCI-H1975; first compound 0.03162 µM
  relative viability: 0.363
NCI-H1975; first compound 0.1 µM
  relative viability: 0.378
NCI-H838; first compound 0.001 µM
  relative viability: 0.599
NCI-H838; first compound 0.003162 µM
  relative viability: 0.613
NCI-H838; first compound 0.01 µM
  relative viability: 0.695
NCI-H838; first compound 0.03162 µM
  relative viability: 0.492
NCI-H838; first compound 0.1 µM
  relative viability: 0.51
